Test results reported in paper PMC12731528, “High‐Affinity Peptide‐Drug Conjugate Ligands for the TRIM24 PHD and Bromodomain” (Chemistry (Weinheim an Der Bergstrasse, Germany), 2025).
Where “and” joins values, the source holds several entries; their conditions need not be identical. Equal values may be shown once. Read-outs that look alike come from different tables or passages of the source.

Assays:
TRIM24 = details: ref Gechijian et al. 2018; cited from earlier work
BRPF1 = details: ref Gechijian et al. 2018; cited from earlier work
His6-TRIM24 (PHD-BRD) [1] = target: T1, His6-TRIM24 (PHD-BRD) (Homo sapiens, UniProt O15164); assay: AlphaScreen competition assay, displacement of biotinylated H3(1–27)K18Ac (B2); design: N825–E1007; made in house; host or cells: Escherichia coli BL21-Gold (DE3), plasmid pNIC28-Bsa4; details: inhibition of TRIM24-H3K18Ac (B2) binding; mean of triplicate ± SEM
T1 sequence (O15164 825-1007): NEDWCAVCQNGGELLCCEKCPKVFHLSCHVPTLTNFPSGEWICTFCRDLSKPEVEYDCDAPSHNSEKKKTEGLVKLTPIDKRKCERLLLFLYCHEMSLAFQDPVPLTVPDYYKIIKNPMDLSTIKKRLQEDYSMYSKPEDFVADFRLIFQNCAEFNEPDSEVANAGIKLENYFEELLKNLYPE

His6-TRIM24 (PHD-BRD) [2] = target: T1, His6-TRIM24 (PHD-BRD); assay: AlphaScreen competition assay, displacement of biotinylated H3(1–27)K9Me3K18Ac (B3); type: binding; design: N825–E1007; made in house; host or cells: Escherichia coli BL21-Gold (DE3), plasmid pNIC28-Bsa4; details: for IC50: AlphaScreen® IC50 (TRIM24 PHD-BRD), inhibition of TRIM24-H3K9Me3K18Ac (B3) binding, mean of triplicate ± SEM; for AlphaScreen signal at plateau relative to baseline: competitor H3(1–27)K9Me3K18Ac
His6-TRIM24 (PHD-BRD) [3] = target: His6-TRIM24 (PHD-BRD) (UniProt O15164); assay: other; AlphaScreen, competitor biotinylated H3K9Me3K18Ac (B3)
TRIM33β = test system: TRIM33β; design: method as in PMID 36098557, PMID 26061247; details: cited from earlier work
TRIM33α = test system: TRIM33α; design: method as in PMID 36098557, PMID 26061247; details: cited from earlier work
His6-TRIM24 (PHD-BRD) [4] = target: T1, His6-TRIM24 (PHD-BRD)
TRIM24 (PHD‐BRD) = target: T2, TRIM24 (PHD‐BRD) (Homo sapiens, UniProt O15164); assay: BROMOscan assay, TRIM24; type: binding
T2 sequence (O15164 826-1004 limits assumed): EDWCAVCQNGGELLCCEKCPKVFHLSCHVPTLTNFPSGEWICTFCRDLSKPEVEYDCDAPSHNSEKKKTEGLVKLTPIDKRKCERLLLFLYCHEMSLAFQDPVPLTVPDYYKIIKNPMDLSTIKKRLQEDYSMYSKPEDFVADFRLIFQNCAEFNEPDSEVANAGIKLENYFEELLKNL
Description: The Hill Slope was set to −1.

BRPF1 (BRD) [5] = target: T3, BRPF1 (BRD) (Homo sapiens, UniProt P55201); assay: BROMOscan assay, BRPF1; details: mean of duplicate data ± 95% confidence interval
T3 sequence (P55201 628-732 limits assumed): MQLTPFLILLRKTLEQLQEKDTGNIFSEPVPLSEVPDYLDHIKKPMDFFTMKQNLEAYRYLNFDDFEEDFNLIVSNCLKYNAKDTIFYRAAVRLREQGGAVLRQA

His6-TRIM24 (PHD-BRD) [6] = target: T1, His6-TRIM24 (PHD-BRD); assay: Surface plasmon resonance (SPR); type: binding; design: N825–E1007; made in house; host or cells: Escherichia coli BL21-Gold (DE3), plasmid pNIC28-Bsa4; details: 15 °C; for Kd: mean of means of triplicate ± SEM
CAL-51 (triple negative) = assay: MTT assay, CAL-51; type: cell-based, human; details: triple-negative breast cancer cell line, up to 10 μM, 16 h
Protocol: (§1) (ER+) and CAL-51 (triple negative), treated with the indicated compound (10 µM). The data are represented as the mean of means for two biological repeats (n = 2), each consisting of three technical repeats. Error bars indicate the standard error of the mean. […]
(§2) due to issues with procurement at the time of running the assay. […]
(§3) indicated compound (10 µM). Compounds were added after seeding on day 0 only and counting was carried out each day for 6 days. Data are represented as the mean of triplicate data from one biological repeat. Error bars indicate the standard deviation. […]
(§4) supplemented with 10% FBS (Merck Life Sciences U.K. Ltd., F7524). Unless otherwise stated, cells were cultured in a humidified incubator at 37 °C and 5% CO2. Cell lines were passaged by trypsinisation (Trypsin-EDTA solution 1×, Merck Life Sciences U.K. Ltd., T3924), and by diluting the cells into a culture flask at the desired density in complete media. Cell lines were […]
(§5) Cells were seeded and allowed to adhere for 6 h in plastic clear-bottomed 96-well plates in a total volume of 200 μL/well complete medium.

BT-474 (ER+) = assay: MTT assay, BT-474; type: cell-based, human; details: ER+ breast cancer cell line, up to 10 μM, 16 h
Protocol: as §1, §2, §3, §4, §5

MCF-7 cells = assay: Proliferation and clonogenic assays, MCF-7; type: cell-based, human; details: MCF-7, 10 µM
Protocol: as §1, §2, §3
Error bars indicate the standard deviation.
(§6) (1 picture or pasted object on this page, not shown here) […]
as §4, §5

CAL-51 cells = assay: Proliferation and clonogenic assays, CAL-51; type: cell-based, human; details: CAL-51, 10 µM
Protocol: as §6, §4, §5

BRPF1 (BRD) [7] = target: T4, BRPF1 (BRD); details: Synthetic nine-residue H3(1-9) peptide. Residue 9 (K10 in precursor numbering) is unnatural amino acid 42, a lysine analogue whose side-chain nitrogen is part of an isoindoline ring (parent written as Lys). C-terminal group is not stated in the text. Limits are inferred from H3(1-8) peptide 46 plus amino acid 42. limits by convention from the usual BRPF1 bromodomain structural construct (covers B); modification not given
T4 chain: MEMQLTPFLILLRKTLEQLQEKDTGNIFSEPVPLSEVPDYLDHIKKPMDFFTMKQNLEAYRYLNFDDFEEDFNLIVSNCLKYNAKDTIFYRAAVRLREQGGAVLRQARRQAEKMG

BRPF1 (BRD) [8] = target: T4, BRPF1 (BRD); assay: BROMOscan; details: Synthetic nine-residue H3(1-9) peptide. Residue 9 (K10 in precursor numbering) is unnatural amino acid 42, a lysine analogue whose side-chain nitrogen is part of an isoindoline ring (parent written as Lys). C-terminal group is not stated in the text. Limits are inferred from H3(1-8) peptide 46 plus amino acid 42. limits by convention from the usual BRPF1 bromodomain structural construct (covers B); modification not given

CCCOc1cccc(Oc2cc3c(cc2NS(=O)(=O)c2cccc(C(=O)NCCOCCOCCOCC(=O)N[C@H](C(=O)N4C[C@H](O)C[C@H]4C(=O)NCc4ccc(-c5scnc5C)cc4)C(C)(C)C)c2)n(C)c(=O)n3C)c1 [dTRIM24]
Kd (TRIM24): 42 nM | Kd (BRPF1): 52 nM

CCCOc1cccc(Oc2cc3c(cc2NS(=O)(=O)c2cccc(C(=O)NCCOCCOCCNC(C)=O)c2)n(C)c(=O)n3C)c1 [compound 32]
IC50 (His6-TRIM24 (PHD-BRD) [1]): 105 ± 5.3 nM | IC50 (His6-TRIM24 (PHD-BRD) [2]): 484 nM | AlphaScreen signal at plateau relative to baseline (His6-TRIM24 (PHD-BRD) [2]): did not decrease to baseline

H3(1-27)K9Me3K18Ac
IC50 (His6-TRIM24 (PHD-BRD) [3]): 242 nM

CCCOc1cc(OCCCCN(C)C)cc(Oc2cc3c(cc2NS(=O)(=O)c2ccc(OC)c(OC)c2)n(C)c(=O)n3C)c1 [IACS9571]
binding to TRIM33β (TRIM33β): does not bind | binding to TRIM33α (TRIM33α): does not bind

C[C@H](N)C(=O)N[C@@H](CCCNC(=N)N)C(=O)N[C@H](C(=O)N[C@@H](CCCC[N+](C)(C)C)C(=O)N[C@@H](CCC(N)=O)C(=O)N[C@H](C(=O)N[C@@H](C)C(=O)N[C@@H](CCCNC(=N)N)C(=O)N[C@@H](CCCCN)C(=O)N[C@@H](CO)C(=O)N[C@H](C(=O)NCC(=O)NCC(=O)N[C@@H](CCCCN)C(=O)N[C@@H](C)C(=O)O)[C@@H](C)O)[C@@H](C)O)[C@@H](C)O [reference compound]
IC50 (His6-TRIM24 (PHD-BRD) [1]): > 400000 nM | IC50 (His6-TRIM24 (PHD-BRD) [2]): > 400000 nM | IC50 (His6-TRIM24 (PHD-BRD) [4]; AlphaScreen® IC50, inhibition of TRIM24-H3K9Me3 (B1) binding by PDCs and controls, mean of triplicate ± SEM): > 400000 nM | IC50 (His6-TRIM24 (PHD-BRD) [4]; AlphaScreen® IC50, inhibition of TRIM24-H3K9Me3 (B1) binding, mean of triplicate data ± standard error of the mean): > 400000 nM

CCCOc1cccc(Oc2cc3c(cc2NS(=O)(=O)c2cccc(C(=O)NCCOCCOCCOCCOCCNC(C)=O)c2)n(C)c(=O)n3C)c1 [compound 34]
IC50 (His6-TRIM24 (PHD-BRD) [1]): 94.2 ± 4.6 nM | Kd (TRIM24 (PHD‐BRD); BROMOscan TRIM24 PHD-BRD Kd, mean of duplicate data ± 95% confidence interval): 2 ± 0.98 nM | Kd (TRIM24 (PHD‐BRD); individual duplicate curves, read-out: BROMOscan TRIM24 Kd, single dose-response curve): 2.5 nM and 1.5 nM | IC50 (His6-TRIM24 (PHD-BRD) [2]): 275 nM | AlphaScreen signal at plateau relative to baseline (His6-TRIM24 (PHD-BRD) [2]): did not decrease to baseline | Kd (BRPF1 (BRD) [5]): 2.15 ± 0.49 nM | koff (His6-TRIM24 (PHD-BRD) [6]; SPR): 0.061 s⁻¹ | kon (His6-TRIM24 (PHD-BRD) [6]; SPR): 6.1e+06 M⁻¹ s⁻¹ | Kd (His6-TRIM24 (PHD-BRD) [6]; binding saturation, read-out: SPR Kd – equilibrium): 11 ± 2.3 nM | Kd (His6-TRIM24 (PHD-BRD) [6]; multi-cycle kinetics, read-out: SPR Kd – kinetic): 10 ± 7 nM

CCCOc1cccc(Oc2cc3c(cc2NS(=O)(=O)c2cccc(C(=O)O)c2)n(C)c(=O)n3C)c1 [compound 28]
IC50 (His6-TRIM24 (PHD-BRD) [1]): 388 ± 46.6 nM | IC50 (His6-TRIM24 (PHD-BRD) [2]): > 100000 nM | AlphaScreen signal at plateau relative to baseline (His6-TRIM24 (PHD-BRD) [2]): did not decrease to baseline

CCCOc1cccc(Oc2cc3c(cc2NS(=O)(=O)c2cccc(C(=O)NCCOCCOCCOCCNC(C)=O)c2)n(C)c(=O)n3C)c1 [compound 33]
cytotoxic effects (MTT) (CAL-51 (triple negative)): did not show cytotoxic effects | IC50 (His6-TRIM24 (PHD-BRD) [1]): 71 ± 4.1 nM | cytotoxic effects (MTT) (BT-474 (ER+)): did not show cytotoxic effects | IC50 (His6-TRIM24 (PHD-BRD) [2]): 348 nM | AlphaScreen signal at plateau relative to baseline (His6-TRIM24 (PHD-BRD) [2]): did not decrease to baseline | effect on breast cancer cell growth (MCF-7 cells): neither compound significantly affected | effect on breast cancer cell growth (CAL-51 cells): neither compound significantly affected

B1: TRIM24 PHD-binding peptide (56) (peptide)
chain: ARTKQTARK
Kd (BRPF1 (BRD) [7]): > 10000 nM | Kd (BRPF1 (BRD) [8]): > 10000 nM
